Test results: patent US20100093726A1 (Giuseppe CAMPIANI, priority 2007, published 2010)

Columns and labels:
[1] = system: KB cell (human carcinoma of the nasopharynx cell line); assay: Cytotoxicity on KB cells; assay type: cell-based
[2] = system: Aspergillus flavus ATCC ® 204304; assay: Antifungal susceptibility (CLSI broth dilution), Aspergillus flavus; assay type: cell-based; conditions: CLSI protocol, reference strain
Source text: (§1) (1) National Committee for Clinical Laboratory Standards. (2002). Reference method for broth dilution antifungal susceptibility testing of yeasts—Second Edition: Approved Standard, M27-A2. NCCLS, Wayne, Pa.; and
(§2) (2) National Committee for Clinical Laboratory Standards. Reference method for broth dilution antifungal susceptibility testing of filamentous fungi: Approved Standard, M38-A. 2002; NCCLS, Wayne, Pa.

[3] = system: Cryptococcus neoformans MGMI 3; assay: Antifungal susceptibility (CLSI broth dilution), Cryptococcus neoformans; assay type: cell-based; conditions: CLSI protocol, clinical isolate
Source text: as §1, §2

[4] = system: Aspergillus fumigatus MGMI 4; assay: Antifungal susceptibility (CLSI broth dilution), Aspergillus fumigatus MGMI 4; assay type: cell-based; conditions: CLSI protocol, clinical isolate
Source text: as §1, §2

[5] = system: Aspergillus fumigatus MGMI 5; assay: Antifungal susceptibility (CLSI broth dilution), Aspergillus fumigatus MGMI 5 (ITRA resistant); assay type: cell-based; conditions: for antifungal susceptibility value (MIC), Aspergillus fumigatus MGMI 5: CLSI protocol, clinical isolate, itraconazole resistant
Source text: as §1, §2

[6] = system: Candida albicans MGMI 1; assay: Antifungal susceptibility (CLSI broth dilution), Candida albicans; assay type: cell-based; conditions: CLSI protocol, clinical isolate
Source text: as §1, §2

[7] = system: Candida parapsilosis ATCC ® 22019; assay: Antifungal susceptibility (CLSI broth dilution), Candida parapsilosis; assay type: cell-based; conditions: CLSI protocol, quality control strain
Source text: as §1, §2

[8] = system: P. Berghei ANKA; assay: In vivo activity against P. berghei; conditions: doses up to 100 mg/Kg
Protocol: The experiment was performed at a single dose of 50 mg/Kg. ED50 was determined for 9a in P. berghei ANKA. All compounds were adminstered per os.

[9] = system: P. Chabaudi AS; assay: In vivo activity against P. chabaudi; conditions: per os; for P. Chabaudi AS (% inhibition at 50 mg/Kg): single dose of 50 mg/Kg
[10] = system: P. falciparum D10; assay: In vitro antiplasmodial activity, P. falciparum D10 (CQ-S clone); assay type: cell-based; conditions: Plasmodium falciparum, D10, read-out: IC50 (nM) D10
Protocol: (§3) Some of the synthesized compounds were tested in vitro against two different strains of P. falciparum, namely 3D7, NF54 and D10 (CQ-S strain) and K1 and W2 (CQ-R strain).

[11] = Cytotoxicity on Daudi cells; assay type: cell-based; conditions: human, Daudi cells (human lymphoblastoid cell line); read-out: TC50 (μM) Daudi cells
[12] = system: yeast and filamentous fungi; assay: Antifungal activity, overall statement; assay type: cell-based; conditions: yeast and filamentous fungi of Table 4
[13] = system: Candida glabrata MGMI 2; assay: Antifungal susceptibility (CLSI broth dilution), Candida glabrata; assay type: cell-based; conditions: CLSI protocol, clinical isolate
Source text: as §1, §2

[14] = Cytotoxicity on NSO cells; assay type: cell-based; conditions: mouse, NSO cells (plasmocytoma murine cell line); read-out: TC50 (μM) NSO cells
[15] = system: P. falciparum K1; assay: microbe, parasite or virus in culture; assay type: cell-based; conditions: Plasmodium falciparum, K1, read-out: IC50 (nM) K1
Protocol: as §3

[16] = system: P. falciparum W2; assay: microbe, parasite or virus in culture; assay type: cell-based; conditions: Plasmodium falciparum, W2, read-out: IC50 (nM) W2
Protocol: as §3

[17] = system: Candida krusei ATCC ® 6258; assay: Antifungal susceptibility (CLSI broth dilution), Candida krusei; assay type: cell-based; conditions: CLSI protocol, quality control strain
Source text: as §1, §2

[18] = system: P. falciparum NF54; assay: In vitro antiplasmodial activity, P. falciparum NF54 (CQ-S clone); assay type: cell-based; conditions: Plasmodium falciparum, NF54, read-out: IC50 (nM) NF54
Protocol: as §3

[19] = Cytotoxicity on normal human lymphocytes; assay type: cell-based; conditions: normal human lymphocytes PHA-stimulated; read-out: TC50 (μM) Normal human lymphocytes
[20] = system: P. falciparum 3D7; assay: In vitro antiplasmodial activity, P. falciparum 3D7 (CQ-S clone); assay type: cell-based; conditions: Plasmodium falciparum, 3D7, read-out: IC50 (nM) 3D7
Protocol: as §3

[21] = system: β-hematin formation (hemin); assay: BHIA (β-hematin inhibitory activity) assay; assay type: biochemical; conditions: hemin in dimethyl sulfoxide-acetate buffer at pH 5.0, 37° C., 18 h

## Clc1ccccc1C(c1ccccc1)(c1ccccc1)n1ccnc1 [CLT, clotrimazole, reference compound]
[1]
  TC50 (μM) KB cell: 88.1 µM
[2]
  antifungal susceptibility value (MIC), Aspergillus flavus ATCC 204304: 4 µg/mL
[3]
  antifungal susceptibility value (MIC), Cryptococcus neoformans MGMI 3: 2 µg/mL
[4]
  antifungal susceptibility value (MIC), Aspergillus fumigatus MGMI 4: 4 µg/mL
[5]
  antifungal susceptibility value (MIC), Aspergillus fumigatus MGMI 5: 4 µg/mL
[6]
  antifungal susceptibility value (MIC), Candida albicans MGMI 1: 0.03 µg/mL
[7]
  antifungal susceptibility value (MIC), Candida parapsilosis ATCC 22019: 2 µg/mL
[8]
  activity against P. berghei in vivo: not active
[9]
  P. Chabaudi AS (% inhibition at 50 mg/Kg): 6.0%

## Clc1ccc(C(Nc2ccnc3cc(Cl)ccc23)c2ccc(CN3CCCC3)cc2)cc1 (racemic) [Compound 9e]
[1]
  TC50 (μM) KB cell: 19.61 µM
[10]
  IC50: 45.8 nM
[11]
  CC50: 8.65 µM
[2]
  antifungal susceptibility value (MIC), Aspergillus flavus ATCC 204304: >32
[3]
  antifungal susceptibility value (MIC), Cryptococcus neoformans MGMI 3: 16
[12]
  anti-fungal activity (in words): lack of anti-fungal activity
[13]
  antifungal susceptibility value (MIC), Candida glabrata MGMI 2: >32
[4]
  antifungal susceptibility value (MIC), Aspergillus fumigatus MGMI 4: >32
[14]
  CC50: 8.65 µM
[15]
  IC50: 9 nM
[16]
  IC50: 72.1 nM
[17]
  antifungal susceptibility value (MIC), Candida krusei ATCC 6258: >32
[18]
  IC50: 15 nM
[5]
  antifungal susceptibility value (MIC), Aspergillus fumigatus MGMI 5: >32
[6]
  antifungal susceptibility value (MIC), Candida albicans MGMI 1: >32
[19]
  CC50: 17.3 µM
[7]
  antifungal susceptibility value (MIC), Candida parapsilosis ATCC 22019: 16
[20]
  IC50: 3.7 nM
[9]
  P. Chabaudi AS (% inhibition at 50 mg/Kg): 99.5%

## CCN(CC)CCCC(C)Nc1ccnc2cc(Cl)ccc12 (centres unmarked) [CQ, chloroquine, reference compound]
[1]
  TC50 (μM) KB cell: 207.0 µM
[10]
  IC50: 22 nM
[15]
  IC50: 260 nM
[16]
  IC50: 280 nM
[18]
  IC50: 7 nM
[20]
  IC50: 10 nM
[21]
  β-hematin inhibitory activity IC50: 0.91 ± 0.23 Molar equivalents of compound relative to hemin
[9]; 10 mg/Kg
  P. Chabaudi AS (% inhibition): 100 (10 mg/Kg) %

## CCC(C)n1ncn(-c2ccc(N3CCN(c4ccc(OCC5COC(Cn6cncn6)(c6ccc(Cl)cc6Cl)O5)cc4)CC3)cc2)c1=O (centres unmarked) [ITRA, itraconazole, reference compound]
[2]
  antifungal susceptibility value (MIC), Aspergillus flavus ATCC 204304: 0.06 µg/mL
[3]
  antifungal susceptibility value (MIC), Cryptococcus neoformans MGMI 3: 0.25 µg/mL
[13]
  antifungal susceptibility value (MIC), Candida glabrata MGMI 2: 32 µg/mL
[4]
  antifungal susceptibility value (MIC), Aspergillus fumigatus MGMI 4: 0.06 µg/mL
[17]
  antifungal susceptibility value (MIC), Candida krusei ATCC 6258: 0.25 µg/mL
[5]; Aspergillus fumigatus, MGMI5, strain description in text, itraconazole resistant isolate
  MIC: > 16 µg/mL
[5]
  antifungal susceptibility value (MIC), Aspergillus fumigatus MGMI 5: > 32 µg/mL
[6]
  antifungal susceptibility value (MIC), Candida albicans MGMI 1: 0.25 µg/mL
[7]
  antifungal susceptibility value (MIC), Candida parapsilosis ATCC 22019: 0.125 µg/mL

## Clc1ccc(C(Nc2ccnc3cc(Cl)ccc23)(c2ccccc2)c2ccc(CN3CCCC3)cc2)cc1 (racemic) [Compound 15a]
[11]
  CC50: 16.7 µM
[14]
  CC50: 14.9 µM
[15]
  IC50: 22 nM
[19]
  CC50: 18.6 µM
[20]
  IC50: 3 nM
[9]
  P. Chabaudi AS (% inhibition at 50 mg/Kg): 99.9%

## FC(F)(F)c1ccc2c(NC(c3ccc(Cl)cc3)c3ccc(CN4CCCC4)cc3)ccnc2c1 (racemic) [Compound 9k]
[1]
  TC50 (μM) KB cell: 5.49 µM
[10]
  IC50: 61.5 nM
[11]
  CC50: 14.1 µM
[2]
  antifungal susceptibility value (MIC), Aspergillus flavus ATCC 204304: >32
[3]
  antifungal susceptibility value (MIC), Cryptococcus neoformans MGMI 3: 16
[12]
  anti-fungal activity (in words): lack of anti-fungal activity
[13]
  antifungal susceptibility value (MIC), Candida glabrata MGMI 2: >32
[4]
  antifungal susceptibility value (MIC), Aspergillus fumigatus MGMI 4: >32
[14]
  CC50: 12.1 µM
[15]
  IC50: 30 nM
[16]
  IC50: 90.5 nM
[17]
  antifungal susceptibility value (MIC), Candida krusei ATCC 6258: >32
[18]
  IC50: 20 nM
[5]
  antifungal susceptibility value (MIC), Aspergillus fumigatus MGMI 5: >32
[6]
  antifungal susceptibility value (MIC), Candida albicans MGMI 1: 16
[19]
  CC50: 24.2 µM
[7]
  antifungal susceptibility value (MIC), Candida parapsilosis ATCC 22019: 16
[20]
  IC50: 0.2 nM
[9]
  P. Chabaudi AS (% inhibition at 50 mg/Kg): 99.6%

## Clc1cccc(C(Nc2ccnc3cc(Cl)ccc23)c2ccc(CN3CCOCC3)cc2)c1 (racemic) [Compound 9b]
[10]
  IC50: 142 nM
[11]
  CC50: 43.9 µM
[14]
  CC50: 44.7 µM
[15]
  IC50: 259 nM
[16]
  IC50: 220 nM
[18]
  IC50: 155 nM
[19]
  CC50: 40.8 µM

## FC(F)(F)c1ccc2c(NC(c3cccc(Cl)c3)c3ccc(CN4CCOCC4)c(Cl)c3)ccnc2c1 (racemic) [Compound 9j]
[15]
  IC50: 375 nM
[18]
  IC50: 163 nM

## CCN(CC)Cc1cc(Nc2ccnc3cc(Cl)ccc23)ccc1O [Amodiaquine]
[21]
  β-hematin inhibitory activity IC50: 0.79 ± 0.01 Molar equivalents of compound relative to hemin
